Among the data in ChEMBL document CHEMBL5442379, “ASAP - SARS-CoV-2 nsp3 macrodomain single point” (2024) are inhibition values, retold here.

For this assay, the target named is Replicase polyprotein 1ab (Severe acute respiratory syndrome coronavirus 2) (UniProt P0DTD1).

Description: Functional biochemical assay to identify treatments for viral infectious disease that targets SARS-COV-2 nsp3 macrodomain, whereby the mechanism of action displaces an ADP-Ribose modified peptide from the binding site. Utilizing a time-resolved fluorescence method to measure binding by reading the emitted fluorescence intensity in two wavelengths.

Take `CC(C)[C@@H](CCN(C)C(=O)c1nn2cccnc2c1Cl)Nc1ncnc2[nH]ccc12`: the inhibition reads like this: (Concentration 49.75 uM, Number of replicates 2.0, Standard deviation 6.794 %) 0.844%; (Concentration 99.5 uM, Number of replicates 2.0, Standard deviation 0.494 %) 1.65%.

As for `Cc1noc(CCCNC(=O)c2ncnc3[nH]ccc23)n1`, under “Concentration 50.0 uM, Number of replicates 2.0, Standard deviation 1.028 %”, the inhibition is -5.13%.

As for `COc1ccc(Nc2ncnc3[nH]ncc23)c(OC)c1`, the inhibition (Concentration 50.0 uM, Number of replicates 2.0, Standard deviation 7.795 %) is 2.6%.

As for `O=C(C[C@@H](NC(=O)c1ncnc2[nH]ccc12)C1CC1)NCc1ccc(C(=O)O)cc1`, the inhibition is, setting by setting: (Concentration 49.75 uM, Number of replicates 2.0, Standard deviation 1.213 %) -9.86%; (Concentration 99.5 uM, Number of replicates 2.0, Standard deviation 0.076 %) 0.768%.

For `O=C(c1cncc(O)n1)N1CCC(c2ccn3ncc(C(=O)N4CCCCC4)c3c2)CC1`, the inhibition by setting is: (Concentration 49.75 uM, Number of replicates 2.0, Standard deviation 0.648 %) 26.6%; (Concentration 99.5 uM, Number of replicates 2.0, Standard deviation 1.31 %) 41.9%.

For `CCC(CC)(C(=O)Nc1nc(C)nc2[nH]ccc12)C(=O)OC(C)(C)C`, the inhibition was -9.46% (Concentration 50.0 uM, Number of replicates 2.0, Standard deviation 5.081 %) and -4.71% (Concentration 100.0 uM, Number of replicates 2.0, Standard deviation 0.41 %).

As to `Clc1cnc(OCCNc2ncnc3[nH]ccc23)c(Cl)c1`, the inhibition reads like this: (Concentration 50.0 uM, Number of replicates 2.0, Standard deviation 2.048 %) -4.3%; (Concentration 100.0 uM, Number of replicates 2.0, Standard deviation 3.465 %) -7.69%.

With `COC[C@@H](Nc1ncnc2nc[nH]c12)c1ccc(C)o1`, the inhibition was -4.64% (Concentration 49.75 uM, Number of replicates 2.0, Standard deviation 2.621 %) and 3.94% (Concentration 99.5 uM, Number of replicates 2.0, Standard deviation 0.049 %).

With `O=C(NCc1c[nH]nn1)c1cnn2ccc(C3CCN(C(=O)c4ccccc4)CC3)cc12`, the inhibition is, setting by setting: (Concentration 49.75 uM, Number of replicates 2.0, Standard deviation 0.251 %) -2.86%; (Concentration 99.5 uM, Number of replicates 2.0, Standard deviation 8.51 %) 2.17%.

With `Cc1cc(NCc2ncccc2O)ncn1`, the inhibition (Concentration 50.0 uM, Number of replicates 2.0, Standard deviation 4.706 %) was -3.33%.

With `C[C@@H](NC(=O)c1ncnc2[nH]ccc12)c1ncc(C(=O)O)c(=O)[nH]1`, the inhibition reads like this: (Concentration 49.75 uM, Number of replicates 2.0, Standard deviation 2.226 %) 4.87%; (Concentration 99.5 uM, Number of replicates 2.0, Standard deviation 1.623 %) 10.7%.

For `CC(C)[C@H]1CN(c2ncnc3[nH]ccc23)[C@H]1C(C)C`, the inhibition runs as follows: (Concentration 49.75 uM, Number of replicates 2.0, Standard deviation 1.709 %) 0.348%; (Concentration 99.5 uM, Number of replicates 2.0, Standard deviation 1.351 %) -2.2%.

On to `Cc1cc(NCc2cnc3c(c2)NC(=O)CO3)cnc1C`, for which the inhibition (Concentration 50.0 uM, Number of replicates 2.0, Standard deviation 8.489 %) amounted to 4.53%.

With `O=C(CCN(Cc1cccc(Cl)c1)C(=O)C1CCC(O)CC1)N1CCNCC1` (configuration not stated), the inhibition runs as follows: (Concentration 49.75 uM, Number of replicates 2.0, Standard deviation 4.563 %) -4.32%; (Concentration 99.5 uM, Number of replicates 2.0, Standard deviation 1.877 %) 0.465%.

For the compound `COc1cccc(NC(=O)c2ccc(NC(=O)Nc3ccccc3)cc2)n1`, the inhibition was determined as 4.65% (Concentration 49.75 uM, Number of replicates 2.0, Standard deviation 3.541 %) and 5.37% (Concentration 99.5 uM, Number of replicates 2.0, Standard deviation 3.473 %).

Consider `Nc1ncc(C(=O)N(CCC(=O)N2CCNCC2)Cc2cccc(Cl)c2)cn1`, for which the inhibition (Concentration 49.75 uM, Number of replicates 2.0, Standard deviation 3.901 %) was -2.76% and the inhibition (Concentration 99.5 uM, Number of replicates 2.0, Standard deviation 0.039 %) was -1.73%.

Take `COc1cccc(Cl)c1CNc1ncnc2[nH]ncc12`: the inhibition (Concentration 50.0 uM, Number of replicates 2.0, Standard deviation 0.519 %) is -1.83%.

Regarding `O=C(c1ccc(O)nc1)N1CCC(c2ccn3ncc(C(=O)N4CCCCC4)c3c2)CC1`, the inhibition by setting is: (Concentration 49.75 uM, Number of replicates 2.0, Standard deviation 5.093 %) 11%; (Concentration 99.5 uM, Number of replicates 2.0, Standard deviation 0.548 %) 26.5%.

With `Cc1nc(Nc2cnn(CCO)c2)c2cc[nH]c2n1`, the inhibition (Concentration 50.0 uM, Number of replicates 2.0, Standard deviation 4.582 %) was -6.15%.

Regarding `Cc1cncc(NCc2csc(-c3ccccn3)n2)c1`, the inhibition (Concentration 50.0 uM, Number of replicates 2.0, Standard deviation 0.194 %) is -5.02%.

As to `C[C@@H](NC(=O)c1cnn2ccc(C3CCN(C(=O)c4ccccc4)CC3)cc12)c1cc[nH]n1`, the inhibition (Concentration 49.75 uM, Number of replicates 2.0, Standard deviation 1.723 %) was -4.99% and the inhibition (Concentration 99.5 uM, Number of replicates 2.0, Standard deviation 0.833 %) is -2.77%.

On to `O=C(Nc1nc2ccc(F)cc2[nH]1)c1cc(N2CCNC2=O)ccc1F`, for which the inhibition (Concentration 50.0 uM, Number of replicates 2.0, Standard deviation 3.412 %) was -7.71%.

For `CC(C)c1nc([C@@H](C)Nc2ncnc3nc[nH]c23)cs1`, the inhibition by setting is: (Concentration 49.75 uM, Number of replicates 2.0, Standard deviation 2.607 %) 2.65%; (Concentration 99.5 uM, Number of replicates 2.0, Standard deviation 0.232 %) 3.07%.

For the compound `Fc1ccc(OC(F)F)c(CNc2cnc3[nH]ncc3c2)c1`, the inhibition (Concentration 50.0 uM, Number of replicates 2.0, Standard deviation 3.077 %) was -6.67%.

Consider `Cn1c(C(=O)N(CCC(=O)N2CCNCC2)Cc2cccc(Cl)c2)cnc1O`, for which the inhibition is -4.76% (Concentration 49.75 uM, Number of replicates 2.0, Standard deviation 0.601 %) and -2.76% (Concentration 99.5 uM, Number of replicates 2.0, Standard deviation 2.256 %).

For `CC(C)n1nccc1NC(=O)c1ccc(NC(=O)Nc2ccccc2)cc1`, the inhibition (Concentration 49.75 uM, Number of replicates 2.0, Standard deviation 2.48 %) is -2% and the inhibition (Concentration 99.5 uM, Number of replicates 2.0, Standard deviation 1.778 %) was -0.924%.

As for `CCn1cc(CNc2cc3c(O)ncnc3cn2)nn1`, the inhibition (Concentration 50.0 uM, Number of replicates 2.0, Standard deviation 1.563 %) was determined as 1.67%.

For the compound `c1ccc(-c2n[nH]cc2CNc2cnc3[nH]ncc3c2)cc1`, the inhibition (Concentration 50.0 uM, Number of replicates 2.0, Standard deviation 1.159 %) is -2.04%.

In the case of `CCn1cc(CNc2nc3[nH]cnc3c(=O)[nH]2)nn1`, the inhibition (Concentration 50.0 uM, Number of replicates 2.0, Standard deviation 3.758 %) is -0.991%.

Take `O=C(Nc1cnc2[nH]ncc2c1)C1CCN(c2ccc3nncn3n2)CC1`: the inhibition (Concentration 50.0 uM, Number of replicates 2.0, Standard deviation 15.88 %) was determined as 17%.

Turning to `Cc1[nH]ncc1CN(C)C(=O)c1cnn2ccc(C3CCN(C(=O)c4ccccc4)CC3)cc12`, the inhibition runs as follows: (Concentration 49.75 uM, Number of replicates 2.0, Standard deviation 5.917 %) -1.14%; (Concentration 99.5 uM, Number of replicates 2.0, Standard deviation 7.587 %) 0.307%.

As for `Cc1[nH]nc(C(=O)N2CCC(c3ccn4ncc(C(=O)N5CCCCC5)c4c3)CC2)c1C`, the inhibition came out at 18% (Concentration 49.75 uM, Number of replicates 2.0, Standard deviation 4.553 %) and 33.8% (Concentration 99.5 uM, Number of replicates 2.0, Standard deviation 2.151 %).

With `NS(=O)(=O)c1ccccc1CNc1ncnc2[nH]ccc12`, the inhibition (Concentration 50.0 uM, Number of replicates 2.0, Standard deviation 10.219 %) stood at 3.66%.

On to `Cc1cc(NCc2csc(C)n2)ncn1`, for which the inhibition (Concentration 50.0 uM, Number of replicates 2.0, Standard deviation 0.576 %) was -4.64%.

As for `O=C(OCc1ccc(Cl)nc1)c1ncnc2[nH]ccc12`, the inhibition (Concentration 50.0 uM, Number of replicates 2.0, Standard deviation 1.988 %) came out at 6.08%.

Consider `CC(C)[C@@H]1[C@H](O)CCN1c1ncnc2[nH]ccc12`, for which the inhibition reads like this: (Concentration 49.75 uM, Number of replicates 2.0, Standard deviation 3.675 %) 17.7%; (Concentration 99.5 uM, Number of replicates 2.0, Standard deviation 0.827 %) 32.1%.

On to `CC(C)[C@@H](CCN(C)C(=O)C1CCc2ccccc2CC1)Nc1ncnc2[nH]ccc12`, for which the inhibition (Concentration 49.75 uM, Number of replicates 2.0, Standard deviation 5.252 %) is -5.62%.

As to `Oc1ccccc1CNc1ncnc2[nH]cnc12`, the inhibition (Concentration 50.0 uM, Number of replicates 2.0, Standard deviation 0.892 %) amounted to 1.9%.

With `CC(C)[C@@H](Nc1ncnc2[nH]ccc12)C(F)F`, the inhibition was found to be 81.6% (Concentration 49.75 uM, Number of replicates 2.0, Standard deviation 1.25 %) and 91.7% (Concentration 99.5 uM, Number of replicates 2.0, Standard deviation 1.983 %).

With `O=S(=O)(Nc1cnc2[nH]ncc2c1)c1cnn(C2CCCC2)c1`, the inhibition (Concentration 50.0 uM, Number of replicates 2.0, Standard deviation 0.633 %) was 0.415%.

As to `O=C(O)c1sccc1C(=O)N1CCC(c2ccn3ncc(C(=O)N4CCCCC4)c3c2)CC1`, the inhibition is, setting by setting: (Concentration 49.75 uM, Number of replicates 2.0, Standard deviation 1.624 %) 55.5%; (Concentration 99.5 uM, Number of replicates 2.0, Standard deviation 1.425 %) 71.5%.

In the case of `O=C(Nc1cnc2[nH]ncc2c1)c1ccccc1CN1CCOCC1`, the inhibition (Concentration 50.0 uM, Number of replicates 2.0, Standard deviation 2.919 %) is -3.24%.

On to `CCN1CCN(C(=O)c2cnn3ccc(C4CCN(C(=O)c5ccccc5)CC4)cc23)CC1=O`, for which the inhibition by setting is: (Concentration 49.75 uM, Number of replicates 2.0, Standard deviation 2.605 %) -8.63%; (Concentration 99.5 uM, Number of replicates 2.0, Standard deviation 4.496 %) -3.46%.

`CNC(=O)c1cccc(CNC(=O)c2ncnc3[nH]ccc23)c1`: the inhibition (Concentration 50.0 uM, Number of replicates 2.0, Standard deviation 1.029 %) was -5.91%.

As to `COCc1cc(CC(=O)Nc2ncnc3[nH]cnc23)no1`, the inhibition (Concentration 50.0 uM, Number of replicates 2.0, Standard deviation 0.215 %) worked out at 2.97%.

With `O=S1(=O)CCC[C@@H](CNc2ncnc3n[nH]cc23)C1`, the inhibition (Concentration 50.0 uM, Number of replicates 2.0, Standard deviation 5.989 %) was 4.59%.

For the compound `COCc1nc(CNc2c(C#N)c(C)nn2C)cs1`, under “Concentration 50.0 uM, Number of replicates 2.0, Standard deviation 4.858 %”, the inhibition was found to be 0.8%.

In the case of `O=C(CCN(Cc1cccc(Cl)c1)C(=O)[C@@H]1C[C@@H](O)CN1)N1CCNCC1`, the inhibition is, setting by setting: (Concentration 49.75 uM, Number of replicates 2.0, Standard deviation 1.654 %) -3.54%; (Concentration 99.5 uM, Number of replicates 2.0, Standard deviation 6.509 %) 4.74%.

What is called inhibition is the change of the read-out against control, counted positive when it falls.
